In the supplement of paper PMC10307832:

How the values were obtained:
Assay in all cases: relative viability (nuclei count vs DMSO), 5 days (fraction); higher = more cells survive
BEN = tested on: BEN
Outline: (§1)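 Values are medians from duplicate plates. Each reflects relative viability, defined as the nuclei count of treated wells over that of vehicle wells. Lung cancer cell lines in 1536-well plates were pin-tool dosed one day after seeding with one drug alone or with a fixed anchor-drug dose plus five library-drug doses (not always all listed) in √10 steps, then fixed, stained and imaged at 4× after 5 days.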

HCC-78 = tested on: HCC-78
Outline: as §1

NCI-H2228 = tested on: NCI-H2228
Outline: as §1

NCI-H520 = tested on: NCI-H520
Outline: as §1

NCI-H2009 = tested on: NCI-H2009
Outline: as §1

UMC-11 = tested on: UMC-11
Outline: as §1

LK-2 = tested on: LK-2
Outline: as §1

HCC-44 = tested on: HCC-44
Outline: as §1

LOU-NH91 = tested on: LOU-NH91
Outline: as §1

SW 1573 = tested on: SW 1573
Outline: as §1

NCI-H1734 = tested on: NCI-H1734
Outline: as §1

NCI-H2405 = tested on: NCI-H2405
Outline: as §1

NCI-H1355 = tested on: NCI-H1355
Outline: as §1

NCI-H838 = tested on: NCI-H838
Outline: as §1

NCI-H727 = tested on: NCI-H727
Outline: as §1

NCI-H1666 = tested on: NCI-H1666
Outline: as §1

HCC-366 = tested on: HCC-366
Outline: as §1

201T = tested on: 201T
Outline: as §1

NCI-H1650 = tested on: NCI-H1650
Outline: as §1

NCI-H1755 = tested on: NCI-H1755
Outline: as §1

NCI-H2347 = tested on: NCI-H2347
Outline: as §1

How did the relative viability (BEN; first compound 0.08 µM) turn out when `Cc1cnc(-c2cnc(NCCNc3ccc(C#N)cn3)nc2-c2ccc(Cl)cc2Cl)[nH]1` + CC1(C)CCC(c2ccc(Cl)cc2)=C(CN2CCN(c3ccc(C(=O)NS(=O)(=O)c4ccc(N[C@H](CCN5CCOCC5)CSc5ccccc5)c(S(=O)(=O)C(F)(F)F)c4)cc3)CC2)C1 [Navitoclax] (partner 0.5 µM) was run?
The relative viability was 0.0701.

And the relative viability (BEN; first compound 0.253 µM)?
Its relative viability is 0.0548.

And the relative viability (BEN; first compound 0.8 µM)?
Its relative viability is 0.0658.

What about the relative viability (BEN; first compound 2.53 µM) of the same molecule?
The relative viability was 0.0673.

And the relative viability (HCC-78; first compound 0.08 µM)?
Its relative viability is 0.955.

And the relative viability (HCC-78; first compound 0.253 µM)?
The relative viability was 0.661.

And the relative viability (HCC-78; first compound 0.8 µM)?
The relative viability was 0.701.

What about the relative viability (HCC-78; first compound 2.53 µM) of the same molecule?
The relative viability was 0.757.

And the relative viability (NCI-H2228; first compound 0.08 µM)?
The relative viability was 0.854.

And the relative viability (NCI-H2228; first compound 0.253 µM)?
The relative viability was 1.14.

And the relative viability (NCI-H2228; first compound 0.8 µM)?
The relative viability was 0.796.

What about the relative viability (NCI-H2228; first compound 2.53 µM) of the same molecule?
The relative viability was 0.536.

What about the relative viability (NCI-H520; first compound 0.08 µM) of the same molecule?
The relative viability was 1.22.

What about the relative viability (NCI-H520; first compound 0.253 µM) of the same molecule?
Its relative viability is 1.13.

What about the relative viability (NCI-H520; first compound 0.8 µM) of the same molecule?
The relative viability was 1.24.

What about the relative viability (NCI-H520; first compound 2.53 µM) of the same molecule?
The relative viability was 1.13.

And the relative viability (NCI-H2009; first compound 0.08 µM)?
Its relative viability is 1.15.

What about the relative viability (NCI-H2009; first compound 0.253 µM) of the same molecule?
The relative viability was 1.16.

And the relative viability (NCI-H2009; first compound 0.8 µM)?
The relative viability was 1.28.

And the relative viability (NCI-H2009; first compound 2.53 µM)?
The relative viability was 1.06.

And the relative viability (UMC-11; first compound 0.08 µM)?
Its relative viability is 0.341.

And the relative viability (UMC-11; first compound 0.253 µM)?
The relative viability was 0.295.

And the relative viability (UMC-11; first compound 0.8 µM)?
The relative viability was 0.304.

What about the relative viability (UMC-11; first compound 2.53 µM) of the same molecule?
Its relative viability is 0.324.

And the relative viability (LK-2; first compound 0.08 µM)?
The relative viability was 1.01.

What about the relative viability (LK-2; first compound 0.253 µM) of the same molecule?
The relative viability was 0.9.

What about the relative viability (LK-2; first compound 0.8 µM) of the same molecule?
Its relative viability is 0.872.

What about the relative viability (LK-2; first compound 2.53 µM) of the same molecule?
Its relative viability is 1.28.

What about the relative viability (HCC-44; first compound 0.08 µM) of the same molecule?
The relative viability was 1.05.

What about the relative viability (HCC-44; first compound 0.253 µM) of the same molecule?
Its relative viability is 0.792.

What about the relative viability (HCC-44; first compound 0.8 µM) of the same molecule?
The relative viability was 0.971.

What about the relative viability (HCC-44; first compound 2.53 µM) of the same molecule?
The relative viability was 1.03.

What about the relative viability (LOU-NH91; first compound 0.08 µM) of the same molecule?
The relative viability was 0.821.

And the relative viability (LOU-NH91; first compound 0.253 µM)?
The relative viability was 0.679.

And the relative viability (LOU-NH91; first compound 0.8 µM)?
Its relative viability is 0.611.

And the relative viability (LOU-NH91; first compound 2.53 µM)?
The relative viability was 0.633.

What about the relative viability (SW 1573; first compound 0.08 µM) of the same molecule?
The relative viability was 1.29.

What about the relative viability (SW 1573; first compound 0.253 µM) of the same molecule?
The relative viability was 0.801.

What about the relative viability (SW 1573; first compound 0.8 µM) of the same molecule?
The relative viability was 1.01.

And the relative viability (SW 1573; first compound 2.53 µM)?
The relative viability was 0.685.

And the relative viability (NCI-H1734; first compound 0.08 µM)?
The relative viability was 0.946.

What about the relative viability (NCI-H1734; first compound 0.253 µM) of the same molecule?
Its relative viability is 0.784.

And the relative viability (NCI-H1734; first compound 0.8 µM)?
Its relative viability is 0.829.

What about the relative viability (NCI-H1734; first compound 2.53 µM) of the same molecule?
Its relative viability is 0.788.

And the relative viability (NCI-H2405; first compound 0.08 µM)?
The relative viability was 1.17.

What about the relative viability (NCI-H2405; first compound 0.253 µM) of the same molecule?
Its relative viability is 0.761.

What about the relative viability (NCI-H2405; first compound 0.8 µM) of the same molecule?
The relative viability was 1.02.

What about the relative viability (NCI-H2405; first compound 2.53 µM) of the same molecule?
The relative viability was 0.326.

What about the relative viability (NCI-H1355; first compound 0.08 µM) of the same molecule?
Its relative viability is 1.03.

And the relative viability (NCI-H1355; first compound 0.253 µM)?
Its relative viability is 0.858.

What about the relative viability (NCI-H1355; first compound 0.8 µM) of the same molecule?
Its relative viability is 0.884.

What about the relative viability (NCI-H1355; first compound 2.53 µM) of the same molecule?
Its relative viability is 0.938.

And the relative viability (NCI-H838; first compound 0.08 µM)?
Its relative viability is 1.21.

And the relative viability (NCI-H838; first compound 0.253 µM)?
The relative viability was 1.11.

What about the relative viability (NCI-H838; first compound 0.8 µM) of the same molecule?
The relative viability was 1.44.

What about the relative viability (NCI-H838; first compound 2.53 µM) of the same molecule?
The relative viability was 1.6.

What about the relative viability (NCI-H727; first compound 0.08 µM) of the same molecule?
The relative viability was 0.45.

And the relative viability (NCI-H727; first compound 0.253 µM)?
Its relative viability is 0.432.

And the relative viability (NCI-H727; first compound 0.8 µM)?
Its relative viability is 0.476.

And the relative viability (NCI-H727; first compound 2.53 µM)?
The relative viability was 0.364.

And the relative viability (NCI-H1666; first compound 0.08 µM)?
Its relative viability is 0.921.

And the relative viability (NCI-H1666; first compound 0.253 µM)?
Its relative viability is 0.868.

What about the relative viability (NCI-H1666; first compound 0.8 µM) of the same molecule?
The relative viability was 0.835.

And the relative viability (NCI-H1666; first compound 2.53 µM)?
Its relative viability is 1.26.

And the relative viability (HCC-366; first compound 0.08 µM)?
The relative viability was 1.04.

What about the relative viability (HCC-366; first compound 0.253 µM) of the same molecule?
The relative viability was 1.02.

What about the relative viability (HCC-366; first compound 0.8 µM) of the same molecule?
Its relative viability is 1.09.

And the relative viability (HCC-366; first compound 2.53 µM)?
The relative viability was 0.89.

And the relative viability (201T; first compound 0.08 µM)?
The relative viability was 1.19.

And the relative viability (201T; first compound 0.253 µM)?
Its relative viability is 1.17.

What about the relative viability (201T; first compound 0.8 µM) of the same molecule?
The relative viability was 1.2.

And the relative viability (201T; first compound 2.53 µM)?
The relative viability was 1.23.

And the relative viability (NCI-H1650; first compound 0.08 µM)?
Its relative viability is 1.13.

What about the relative viability (NCI-H1650; first compound 0.253 µM) of the same molecule?
The relative viability was 1.05.

And the relative viability (NCI-H1650; first compound 0.8 µM)?
Its relative viability is 1.42.

And the relative viability (NCI-H1650; first compound 2.53 µM)?
The relative viability was 1.21.

And the relative viability (NCI-H1755; first compound 0.08 µM)?
The relative viability was 1.07.

What about the relative viability (NCI-H1755; first compound 0.253 µM) of the same molecule?
The relative viability was 0.866.

And the relative viability (NCI-H1755; first compound 0.8 µM)?
Its relative viability is 1.01.

And the relative viability (NCI-H1755; first compound 2.53 µM)?
The relative viability was 0.989.

And the relative viability (NCI-H2347; first compound 0.08 µM)?
The relative viability was 0.947.

And the relative viability (NCI-H2347; first compound 0.253 µM)?
Its relative viability is 0.625.

And the relative viability (NCI-H2347; first compound 0.8 µM)?
The relative viability was 0.832.

What about the relative viability (NCI-H2347; first compound 2.53 µM) of the same molecule?
Its relative viability is 0.857.
